Measured values published in publication PMC9769880, “Diverse Sensory Repertoire of Paralogous Chemoreceptors Tlp2, Tlp3, and Tlp4 in Campylobacter jejuni” (Microbiology Spectrum, 2022).
Where two headings read alike, the source gives them in different places.

Assays:
Tlp3 [1] = molecular target: T1, Tlp3 (Campylobacter jejuni, UniProt Q0P864); assay: Glycan/small molecule arrays with Tlp3; details: yes/no binding
Description: Glycan (>400 monosaccharides or complex glycans) and small molecule arrays containing amino acids and salts were performed as described previously by Day et al. ([67]). Briefly, 1 μg of purified recombinant protein was complexed with anti-His antibody (Cell Signaling Technology) and rabbit anti-mouse/goat anti-rabbit Alexa 555-IgG (Thermo Scientific) at a molar ratio of 1:0.5:0.25 and then incubated on the array for […] in phosphate-buffered saline (PBS). The array slides were scanned at 488/520 nm and analyzed using InnoScan 1100 with MAPIX software. All arrays were performed in triplicate with a total of 12 data points for each glycan tested; the complete data set and MIRAGE (i.e., minimum information regarding a glycomics experiment) results are shown in Tables S3 and S8.
Table S8 - Supplementary glycan microarray document based on M IRAGE guidelines. D O I:
Classification Guidelines
1. Sample: Glycan Binding Sample
Origin: Helicobacter pylori SS1; produced as a recombinant His - tagged protein in E.
The preparation of Tlp2,3, and 4 is explained in the Materials and Methods section:
Expression and purification of the periplasmic domain of Tlp2,3, and 4.
Sample Sample is a His Tagged protein containing only the periplasmic receptor domain of the modifications full length Tlp2,3, and 4transmembrane protein.
Please see Materials and Methods: Tlps 2/3/4 bind to a range of ligands, including […]
Proteins were complexed with mouse anti- his antibody, with secondary and tertiary AlexaFluor555 antibodies (rabbit anti-mouse, goat anti-rabbit) at a molar ratio of 4:2:1.
The protein/antibody complex was incubated on ice for 10 mins prior to placing on the Assay protocol array. Arrays were performed with 1 µg of complexed protein incubated on the array for 20 min. Arrays were then washed 3 times in Array PBS (PBS + 2mM MgCl2 + 2mM CaCl2) then dried by centrifugation for 3 min at 300 x g . Scanning was performed us ing an Innopsys InnoScan 1100AL and analyzed using Mapix (Innopsys). Yes/no binding was determined by six positive replicate spots in three replicate experiments. Positive […]
Glycan Glycans in this study are listed in Table S2 and is a published library in doi:
Glycans were prepared in one of two ways for printing:
Glycan 1. Glycans (with IDs in number/letter format; e.g. 1A, 4C, 7K) were sourced modifications commercially from Dextra Laboratories, Elicityl and Carbosythn and were made into glycoamines using the protocol published in Day et al 2009 (doi:
Glycan arrays: We only use glycan arrays as a yes/no binding tool. Due to this we look only at binding that is unambiguously above background vs lack of binding above background. Average background + 3x standard deviation of the background of 20 sets of 4 spots of DMF:DMSO only spots is applied to determine if binding observed is […]
Only spots with values equal to or greater than this value were considered as binding from data of any tested slide. These values are slide […]
Data Small molecule arrays: We only use amino acid arrays as a yes/no binding tool. Due interpretation to this we look only at binding that is unambiguously above background vs lack of binding above background. Average background + 3x standard deviation of the background of 6 spots of PBS + 2% glycerol only spots is applied to determine if […]
Only spots with values equal to or greater than this value were considered as binding from data of any tested slide. These values are slide dependent. […]

Tlp3^LBD K149A = Tlp3^LBD K149A (Campylobacter jejuni, UniProt Q0P864, K149A); assay: biochemical
Tlp3^LBD K149A, sequence (Q0P864 41-290 K149A): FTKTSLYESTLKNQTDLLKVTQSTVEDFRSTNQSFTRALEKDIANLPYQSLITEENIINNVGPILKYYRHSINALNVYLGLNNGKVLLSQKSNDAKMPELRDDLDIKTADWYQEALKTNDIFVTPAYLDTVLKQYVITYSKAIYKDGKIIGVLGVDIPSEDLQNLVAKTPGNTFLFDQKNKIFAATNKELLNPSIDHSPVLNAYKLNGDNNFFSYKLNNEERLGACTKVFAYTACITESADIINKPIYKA

Tlp2 = Tlp2 (Campylobacter jejuni, UniProt Q0PBZ3); assay: biochemical; format: binding
Tlp2, sequence (Q0PBZ3 entry or part of it): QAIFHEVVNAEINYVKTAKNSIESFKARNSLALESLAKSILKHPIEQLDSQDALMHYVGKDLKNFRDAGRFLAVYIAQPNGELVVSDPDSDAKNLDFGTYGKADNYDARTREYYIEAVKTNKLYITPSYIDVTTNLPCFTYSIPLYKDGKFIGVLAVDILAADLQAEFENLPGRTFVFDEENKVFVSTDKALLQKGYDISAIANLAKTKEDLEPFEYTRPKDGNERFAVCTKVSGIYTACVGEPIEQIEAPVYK
Description: (§1) His-tagged proteins (Tlp2, -3, and -4) were prepared as previously described ([11]) DNA segments encoding the periplasmic sensory domains (33 to 286 amino acids) of Tlp2 and (38 to 297 amino acids) of Tlp4 were amplified (see Table S7), ligated into pGEM-T Easy (Promega) and subcloned into pET-19b (Novagen) (see Table S6). Recombinant proteins were expressed in E. coli BL21(DE3) using 1 mM IPTG (isopropyl-β-D-thiogalactopyranoside) and purified using His-select-nickel chromatography as described previously ([8], [11]). The purity of the proteins was confirmed by SDS-PAGE and Western blot analysis with anti-His antibodies (Bio-Rad). Protein concentrations were determined using a NanoDrop spectrophotometer (Thermo Fisher).
(§2) Surface plasmon resonance (SPR) experiments were performed as described previously ([10], [11]) with the following modifications. Briefly, purified proteins were diluted to 0.15 μM in sodium acetate (pH 4.0) and immobilized onto an active flow cell of a CM5 sensor chip with a flow rate of 5 μL/min for 7 min of contact time using a standard amine coupling protocol. Immobilized protein levels for all three proteins ranged from 6028.3 to 9779.3 response units (RU) providing a minimum expected response maximum (RMax) between 20 and 50 RU for the small molecules tested. […] All ligands were prepared in PBS (pH 7.2) and serially diluted from 0.2 to 0.0125 mM. A 10-min dissociation period was allocated after the introduction of each analyte. SPR experiments were performed in single-cycle kinetics mode using the BIAcore S200 biosensor system (Cytiva) at 25°C in PBS (pH 7.2) at a flow rate of 30 μL/min. The equilibrium dissociation constant (KD) for each analyte was determined using BIAcore S200 Evaluation software with a report point 4 s after the injection stop to account for the bulk transfer of the small molecule against a large amount of immobilized protein (as shown in Fig. S5).

Tlp4 = Tlp4 (Campylobacter jejuni, UniProt Q0PBP3); assay: biochemical; format: binding
Tlp4, sequence (Q0PBP3 entry or part of it): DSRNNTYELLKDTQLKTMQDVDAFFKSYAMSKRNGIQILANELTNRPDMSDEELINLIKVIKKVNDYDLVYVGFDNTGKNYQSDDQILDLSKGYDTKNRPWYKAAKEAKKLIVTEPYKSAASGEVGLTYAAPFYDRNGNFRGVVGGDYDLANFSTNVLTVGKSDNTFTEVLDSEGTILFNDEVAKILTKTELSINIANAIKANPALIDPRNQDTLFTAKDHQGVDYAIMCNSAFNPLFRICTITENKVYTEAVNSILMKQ
Description: as §1, §2

Tlp3^LBD D169A = Tlp3^LBD D169A (Campylobacter jejuni, UniProt Q0P864, D169A); assay: biochemical
Tlp3^LBD D169A, sequence (Q0P864 41-290 D169A): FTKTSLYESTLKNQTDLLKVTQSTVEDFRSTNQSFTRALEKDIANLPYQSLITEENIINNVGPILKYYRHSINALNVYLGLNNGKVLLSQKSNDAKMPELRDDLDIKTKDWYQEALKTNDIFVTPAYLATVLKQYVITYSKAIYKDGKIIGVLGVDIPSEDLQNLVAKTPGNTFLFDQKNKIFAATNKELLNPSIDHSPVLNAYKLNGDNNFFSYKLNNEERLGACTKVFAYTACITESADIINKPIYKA

Tlp3 [2] = molecular target: T1, Tlp3; assay: biochemical; format: binding
Description: as §1, with “The purity of the proteins was confirmed by SDS-PAGE and Western blot analysis with anti-His antibodies (Bio-Rad).” left out
Surface plasmon resonance (SPR) experiments were performed as described previously ([10], [11]) with the following modifications. […] All ligands were prepared in PBS (pH 7.2) and serially diluted from 0.2 to 0.0125 mM. A 10-min dissociation period was allocated after the introduction of each analyte. SPR experiments were performed in single-cycle kinetics mode using the BIAcore S200 biosensor system (Cytiva) at 25°C in PBS (pH 7.2) at a flow rate of 30 μL/min. The equilibrium dissociation constant (KD) for each analyte was determined using BIAcore S200 Evaluation software with a report point 4 s after the injection stop to account for the bulk transfer of the small molecule against a large amount of immobilized protein (as shown in Fig. S5).

[3] = SPR KD, mean ± SD, NB = no binding, read-out: Tlp2 Affinity
[4] = SPR KD, mean ± SD, NB = no binding, read-out: Tlp4 Affinity

T1 sequence (Q0P864 entry or part of it): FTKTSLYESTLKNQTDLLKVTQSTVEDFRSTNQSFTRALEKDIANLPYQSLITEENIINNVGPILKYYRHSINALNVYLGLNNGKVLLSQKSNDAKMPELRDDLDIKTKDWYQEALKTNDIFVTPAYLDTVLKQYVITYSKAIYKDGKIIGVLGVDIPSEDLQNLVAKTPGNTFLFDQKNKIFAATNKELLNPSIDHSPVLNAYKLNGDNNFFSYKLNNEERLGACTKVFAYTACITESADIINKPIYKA

Structure (SMILES): C[C@H](O)[C@@H](O)[C@@H](O)[C@H](O)C=O [Fucose]
- binding to Tlp3 on glycan/small molecule array (Tlp3 [1]): interacted
- Kd (Tlp3^LBD K149A): 63.7 ± 16.8 µM
- Kd (Tlp2; [3]): 15.5 ± 0.9 µM
- Kd (Tlp4; [4]): 16.2 ± 2.2 µM
- Kd (Tlp3^LBD D169A): 50 ± 17.6 µM
- Kd (Tlp3 [2]): 25.2 ± 6.5 µM

Structure (SMILES): NCCCC[C@H](N)C(=O)O [Lysine]
- binding to Tlp3 on glycan/small molecule array (Tlp3 [1]): bind specifically
- Kd (Tlp3^LBD K149A): 32.3 ± 5.3 µM
- Kd (Tlp2): 18.6 ± 1.5 µM
- Kd (Tlp4): 19.7 ± 3.9 µM
- Kd (Tlp3^LBD D169A): 29.2 ± 4.9 µM
- Kd (Tlp3 [2]): 4.3 ± 1.6 µM

Structure (SMILES): CC(=O)N[C@H]1[C@H]([C@H](O)[C@H](O)CO)OC(O)(C(=O)O)C[C@@H]1O (stereo partly drawn) [Sialic acid]
- binding to Tlp3 on glycan/small molecule array (Tlp3 [1]): interacted
- Kd (Tlp3^LBD K149A): 24 ± 6.6 µM
- Kd (Tlp2; [3]): 1.7 ± 0.2 µM
- Kd (Tlp4; [4]): 0.8 ± 0.1 µM
- Kd (Tlp3^LBD D169A): 25.2 ± 8.5 µM
- Kd (Tlp3 [2]): 9 ± 0.2 µM
